The target of one assay is 229E Mpro (Human coronavirus 229E, UniProt P0C6X1). Briefly: 229E Mpro enzymatic assay. Format: biochemical, HCoV 229E. On the procedure:
(§1) Compounds were assayed using standard methods to assess compound activity and IC50. As an exemplary for assessment of the SARS-COV2 Mpro, the C-His6-tagged Mpro (NC_045512) was cloned, expressed in E. coli and purified. The assay buffer contained 20 mM of Tris-HCl (pH 7.3), 100 mM of NaCl, 1 mM of EDTA, 5 mM of TCEP and 0.1% BSA. The final concentrations of the Mpro protein and substrate were 25 nM and 25 μM, respectively, in the Mpro enzymatic assay. The Km of the Mpro substrate for the protease was 13.5 μM.
(§2) The compounds were added to an assay plate. For 100% inhibition control (HPE, hundred percent effect), 1 μM GC376 was added. For no inhibition control (ZPE, zero percent effect), no compound was added.
(§3) IC50 values of compounds were calculated with the GraphPad Prism software using the nonlinear regression model of log(inhibitor) vs. response—Variable slope (four parameters). The inhibition activity was calculated using the formula below, IC50 values is calculated using the Inhibition % data.
(§4) [formula] • #HEP: Hundred percent effect controls. Containing substrate+enzyme+1 μM GC376. • ZPE: Zero percent effective controls. Containing enzyme+substrate, no compound. • Sample: Compound activity testing wells. Containing compound+enzyme+substrate. • BG: Compound background control wells. Containing compound+substrate, no enzyme.

For a further assay, the target named is OC43 Mpro (Human coronavirus OC43, UniProt P0C6X6). Briefly: OC43 Mpro enzymatic assay. In kind it is biochemical, HCoV OC43. On the procedure: as §1, §2, §3, §4
Sequence of OC43 Mpro (P0C6X6 3247-3549): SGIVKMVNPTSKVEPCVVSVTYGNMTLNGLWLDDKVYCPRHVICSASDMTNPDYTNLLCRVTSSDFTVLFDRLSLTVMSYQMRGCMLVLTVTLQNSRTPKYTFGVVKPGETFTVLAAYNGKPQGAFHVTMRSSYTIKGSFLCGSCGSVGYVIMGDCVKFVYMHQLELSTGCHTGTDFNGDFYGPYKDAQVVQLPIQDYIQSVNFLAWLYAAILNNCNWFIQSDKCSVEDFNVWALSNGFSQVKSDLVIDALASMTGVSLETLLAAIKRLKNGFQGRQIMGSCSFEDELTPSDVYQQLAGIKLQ
In another assay the target is SARS-COV2 Mpro (Severe acute respiratory syndrome coronavirus 2, UniProt P0DTD1). Briefly: COVID-19 (nCoV-2019, SARS-CoV2) Mpro enzymatic assay. In kind it is biochemical. The conditions noted are these: read-out: COVID-19 Mpro IC50. On the procedure: Compounds were assayed using standard methods to assess compound activity and IC50. As an exemplary for assessment of the SARS-COV2 Mpro, the C-His6-tagged Mpro (NC_045512) was cloned, expressed in E. coli and purified. The assay buffer contained 20 mM of Tris-HCl (pH 7.3), 100 mM of NaCl, 1 mM of EDTA, 5 mM of TCEP and 0.1% BSA. The final concentrations of the Mpro protein and substrate were 25 nM and 25 μM, respectively, in the Mpro enzymatic assay.
The compounds were added to an assay plate. For 100% inhibition control (HPE, hundred percent effect), 1 μM GC376 was added.
as §3
[formula] • #HEP: Hundred percent effect controls. […] Containing enzyme+substrate, no compound. • Sample: Compound activity testing wells. Containing compound+enzyme+substrate. • BG: Compound background control wells. Containing compound+substrate, no enzyme.

Where two headings read alike, the source gives them in different places.

One may read the IC50 as the midpoint of a concentration-inhibition curve.

Sequence of 229E Mpro (P0C6X1 2966-3267): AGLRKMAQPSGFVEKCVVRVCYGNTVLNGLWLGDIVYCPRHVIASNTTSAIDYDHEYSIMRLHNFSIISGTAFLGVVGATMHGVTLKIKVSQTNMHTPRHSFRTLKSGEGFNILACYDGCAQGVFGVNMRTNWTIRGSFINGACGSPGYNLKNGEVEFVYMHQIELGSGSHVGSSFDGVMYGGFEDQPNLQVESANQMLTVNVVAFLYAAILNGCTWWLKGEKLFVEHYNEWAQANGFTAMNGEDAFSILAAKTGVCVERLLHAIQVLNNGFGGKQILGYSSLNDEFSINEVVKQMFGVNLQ

Turning to `CC(C)(C)[C@H](NC(=O)OC1CC(F)(F)C1(F)F)C(=O)N1C[C@H]2[C@@H]([C@H]1C(=O)N[C@H](C#N)C[C@@H]1CC3(CC3)NC1=O)C2(C)C` (single isomer, unassigned) [273 Isomer 1], the IC50 against 229E Mpro (Table 3), against OC43 Mpro (Table 3) and at SARS-COV2 Mpro (Table 3) was under 2000 nM each time.
With `CC(C)(C)[C@H](NC(=O)OC1CC(F)(F)C1(F)F)C(=O)N1C[C@H]2[C@@H]([C@H]1C(=O)N[C@H](C#N)C[C@@H]1CC3(CC3)NC1=O)C2(C)C` (single isomer, unassigned) [273 Isomer 2], the IC50 against 229E Mpro (Table 3), at OC43 Mpro (Table 3) and at SARS-COV2 Mpro (Table 3) was under 2000 nM throughout.
As for `CC(C)(C)[C@H](NC(=O)C1(CF)CC1(F)F)C(=O)N1C[C@H]2[C@@H]([C@H]1C(=O)N[C@H](C#N)C[C@@H]1CC3(CC3)NC1=O)C2(C)C` (single isomer, unassigned) [292 Isomer 1], the 50% inhibitory concentration (IC50) against 229E Mpro (Table 3), against OC43 Mpro (Table 3) and on SARS-COV2 Mpro (Table 3) was under 2000 nM in each case.
`CC(C)(C)[C@H](NC(=O)C1(CF)CC1(F)F)C(=O)N1C[C@H]2[C@@H]([C@H]1C(=O)N[C@H](C#N)C[C@@H]1CC3(CC3)NC1=O)C2(C)C` (single isomer, unassigned) [292 Isomer 2]: the IC50 on 229E Mpro (Table 3), on OC43 Mpro (Table 3) and on SARS-COV2 Mpro (Table 3) was under 2000 nM in each case.
Regarding `CC1(C)[C@@H]2[C@@H](C(=O)N[C@H](C#N)C[C@@H]3CC4(CC4)NC3=O)N(C(=O)C(NC(=O)C(F)(F)F)C3CCC3)C[C@@H]21` (single isomer, unassigned) [372 Isomer 1], the IC50 against 229E Mpro (Table 3), against OC43 Mpro (Table 3) and at SARS-COV2 Mpro (Table 3) was under 2000 nM in each case.
With `CC1(C)[C@@H]2[C@@H](C(=O)N[C@H](C#N)C[C@@H]3CC4(CC4)NC3=O)N(C(=O)C(NC(=O)C(F)(F)F)C3CCC3)C[C@@H]21` (single isomer, unassigned) [372 Isomer 2], the IC50 against 229E Mpro (Table 3), at OC43 Mpro (Table 3) and on SARS-COV2 Mpro (Table 3) was under 2000 nM throughout.
For the compound `COC(C)(C)[C@H](NC(=O)C(F)(F)F)C(=O)N1C[C@H]2[C@@H]([C@H]1C(=O)N[C@H](C#N)C[C@@H]1CC3(CC3)NC1=O)C2(C)C` (single isomer, unassigned) [Compound 284], the figures for the IC50 against 229E Mpro (Table 5), against OC43 Mpro (Table 5) and on SARS-COV2 Mpro (Table 5) were 10000 to 30000 nM, under 2000 nM and under 2000 nM, respectively.
With `C[C@@H](OC1CC1)[C@H](NC(=O)C(F)(F)F)C(=O)N1C[C@H]2[C@@H]([C@H]1C(=O)N[C@H](C#N)C[C@@H]1CC(C)(C)NC1=O)C2(C)C` (single isomer, unassigned) [Compound 298], the IC50 against 229E Mpro (Table 5), against OC43 Mpro (Table 5) and at SARS-COV2 Mpro (Table 5) was under 2000 nM each time.
`C[C@@H](OC1CC1)[C@@H](NC(=O)C(F)(F)F)C(=O)N1C[C@H]2[C@@H]([C@H]1C(=O)N[C@H](C#N)C[C@@H]1CC(C)(C)NC1=O)C2(C)C` (single isomer, unassigned) [Compound 298a]: the IC50 against 229E Mpro (Table 5), against OC43 Mpro (Table 5) and at SARS-COV2 Mpro (Table 5) was under 2000 nM each time.
Take `C[C@@H](OC1(C)CC1)[C@H](NC(=O)C(F)(F)F)C(=O)N1C[C@H]2[C@@H]([C@H]1C(=O)N[C@H](C#N)C[C@@H]1CC(C)(C)NC1=O)C2(C)C` (single isomer, unassigned) [Compound 299]: the IC50 against 229E Mpro (Table 3), against 229E Mpro (Table 5), against OC43 Mpro (Table 3), at OC43 Mpro (Table 5) and at SARS-COV2 Mpro (Table 3) was under 2000 nM each time.
For `C[C@@H](OC1(C)CC1)[C@H](NC(=O)C(F)(F)F)C(=O)N1C[C@H]2[C@@H](C1C(=O)N[C@H](C#N)C[C@@H]1CC(C)(C)NC1=O)C2(C)C` (single isomer, unassigned) [Compound 299a], the IC50 against 229E Mpro (Table 5), on OC43 Mpro (Table 5) and at SARS-COV2 Mpro (Table 5) was under 2000 nM each time.
Take `CN(C(=O)[C@@H](NC(=O)c1cnccn1)C(C)(C)C)[C@@H](CC1CC1)C(=O)N[C@H](C#N)C[C@@H]1CCCNC1=O` [Compound 102, N-[(1S)-1-[[(1S)-2-[[(1S)-1-cyano-2-[(3S)-2-oxo-3-piperidyl]ethyl]amino]-1-(cyclopropylmethyl)-2-oxo-ethyl]-methyl-carbamoyl]-2,2-dimethyl-propyl]pyrazine-2-carboxamide]: the results for the IC50 against 229E Mpro (Table 3), at OC43 Mpro (Table 3) and on SARS-COV2 Mpro (Table 3) were 2000 to 10000 nM, 10000 to 30000 nM and over 30000 nM, respectively.
Take `N#C[C@H](C[C@@H]1CCNC1=O)NC(=O)[C@H](CC1CC1)NC(=O)[C@H](Cc1ccc(F)cc1)NC(=O)c1cnccn1` [Compound 125]: the 50% inhibitory concentration (IC50) at 229E Mpro (Table 3) is under 2000 nM; against OC43 Mpro (Table 3), under 2000 nM; at SARS-COV2 Mpro (Table 3) it was 2000 to 10000 nM.
Regarding `C[C@@H](OC(C)(C)C)[C@H](NC(=O)C(F)(F)F)C(=O)N1C[C@H]2[C@@H]([C@H]1C(=O)N[C@H](C#N)C[C@@H]1CC3(CC3)NC1=O)C2(C)C` [Compound 137, (1R,2S,5S)-3-[(2S,3R)-3-tert-butoxy-2-[(2,2,2-trifluoroacetyl)amino]butanoyl]-N-[(1S)-1-cyano-2-[(6R)-5-oxo-4-azaspiro[2.4]heptan-6-yl]ethyl]-6,6-dimethyl-3-azabicyclo[3.1.0]hexane-2-carboxamide], the IC50 against 229E Mpro (Table 5), against OC43 Mpro (Table 5) and at SARS-COV2 Mpro (Table 5) was under 2000 nM each time.
For `C[C@H](OC(C)(C)C)[C@H](NC(=O)C(F)(F)F)C(=O)N1C[C@H]2[C@@H]([C@H]1C(=O)N[C@H](C#N)C[C@@H]1CC3(CC3)NC1=O)C2(C)C` [Compound 138, (1R,2S,5S)-3-[(2S,3S)-3-tert-butoxy-2-[(2,2,2-trifluoroacetyl)amino]butanoyl]-N-[(1S)-1-cyano-2-[(6R)-5-oxo-4-azaspiro[2.4]heptan-6-yl]ethyl]-6,6-dimethyl-3-azabicyclo[3.1.0]hexane-2-carboxamide], the IC50 on 229E Mpro (Table 5), at OC43 Mpro (Table 5) and at SARS-COV2 Mpro (Table 5) was under 2000 nM each time.
Consider `COC(C)(C)[C@H](NC(=O)C(F)(F)F)C(=O)N1C[C@H]2[C@@H]([C@H]1C(=O)N[C@H](C#N)C[C@@H]1CC3(CC3)NC1=O)C2(C)C` [Compound 139, (1R,2S,5S)—N—((S)-1-cyan-2-((R)-5-oxo-4-azaspiro[2.4]heptan-6-yl)ethyl)-3-((S)-3-methoxy-3-methyl-2-(2,2,2-trifluoroacetamido)butanoyl)-6,6-dimethyl-3-azabicyclo[3.1.0]hexane-2-carboxamide], for which the IC50 against 229E Mpro (Table 5), against OC43 Mpro (Table 5) and at SARS-COV2 Mpro (Table 5) was under 2000 nM throughout.
With `CC(C)(C)[C@H](N)C(=O)N1C[C@H]2[C@@H]([C@H]1C(=O)N[C@H](C#N)C[C@@H]1CC3(CC3)NC1=O)C2(C)C` [Compound 235, (1R,2S,5S)-3-((S)-2-amino-3,3-dimethylbutanoyl)-N—((S)-1-cyano-2-((R)-5-oxo-4-azaspiro[2.4]heptan-6-yl)ethyl)-6,6-dimethyl-3-azabicyclo[3.1.0]hexane-2-carboxamide], the IC50 at 229E Mpro (Table 3), on OC43 Mpro (Table 3) and on SARS-COV2 Mpro (Table 3) was under 2000 nM throughout.
With `C[C@@H](OC(C)(C)C)[C@H](NC(=O)C(F)(F)F)C(=O)N1C[C@H]2[C@@H]([C@H]1C(=O)N[C@H](C#N)C[C@@H]1CC(C)(C)NC1=O)C2(C)C` [Compound 285, (1RSS)-3-[(2S,3R)-3-tert-butoxy-2-[(2,2,2-trifluoroacetyl)amino]butanoyl]-N-[(1S)-1-cyano-2-[(3R)-5,5-dimethyl-2-oxo-pyrrolidin-3-yl]ethyl]-6,6-dimethyl-3-azabicyclo[3.1.0]hexane-2-carboxamide], the IC50 at 229E Mpro (Table 3), at OC43 Mpro (Table 3) and on SARS-COV2 Mpro (Table 3) was under 2000 nM each time.
For the compound `CO[C@H](C)[C@H](NC(=O)C(F)(F)F)C(=O)N1C[C@H]2[C@@H]([C@H]1C(=O)N[C@H](C#N)C[C@@H]1CC(C)(C)NC1=O)C2(C)C` [Compound 290, (1R,2S,5S)-N—((S)-1-cyano-2-((R)-5,5-dimethyl-2-oxopyrrolidin-3-yl)ethyl)-3-((2S,3R)-3-methoxy-2-(2,2,2-trifluoroacetamido)butanoyl)-6,6-dimethyl-3-azabicyclo[3.1.0]hexane-2-carboxamide], the IC50 against 229E Mpro (Table 5), against OC43 Mpro (Table 5) and at SARS-COV2 Mpro (Table 5) was under 2000 nM each time.

These data come from patent publication US20240277795A1, “INHIBITORS OF CYSTEINE PROTEASES AND METHODS OF USE THEREOF” (Pardes Biosciences, Inc., priority 2021, published 2024).
